# Entries after “also recorded” stand apart in the source; their conditions may differ.
# Key:
# [1] = tested on: ragweed sensitized Beagle dogs; assay: Ragweed-induced nasal congestion, nasal cavity volume by acoustic rhinometry; type: in vivo
# Text: Beagle dogs immunized with ragweed (RW) as puppies develop allergic immune responses. These allergic dogs show elevated total and specific serum IgE and increased numbers of eosinophils in their blood and lungs, as well as an increase in airway resistance and a decrease in dynamic compliance after a challenge with RW by inhalation or local instillation in defined lung lobes. Additionally, these dogs develop increased nasal congestion and inflammation following RW challenge in the nose.
# Ragweed sensitized beagle dogs (n=5) with preexisiting nasal and airway allergic responses were utilized in the animal study described in this Example. Dogs served as their own control and initially were treated with vehicle (sterile water) and then rested for 5 weeks prior to receiving the test compound. […] Based on the aerosol testing only 1.6 mg/dog could be delivered by inhalation during a 15 minute exposure (20 mg/ml solution). […]
# (§1) FIG. 1 summarizes the study design for characterizing the effects of CGP on rhinitis symptoms in ragweed sensitized Beagle dogs. The baseline nasal cavity volume was first measured 3 days (day −3) before each of the vehicle and CGP treatments. […]
# Treatment occurred on Days 0 to 5 (only AM on Day 5). […] The pH of the compound (as administered for nasal inhalation) was recorded prior to administration. […]
# Acoustic rhinometery was measured on experimental Days 3, 4, and 5. […]
# [2] = tested on: histamine, leukotriene C4/D4/E4, prostaglandin D2 and E2 in nasal lavage fluid; assay: Mediators (histamine, leukotrienes, prostaglandins) in nasal lavage fluid after intranasal ragweed challenge; type: in vivo, Beagle dogs
# Experimental: (§2) Ragweed sensitized beagle dogs (n=5) with preexisiting nasal and airway allergic responses were utilized in the animal study described in this Example. Dogs served as their own control and initially were treated with vehicle (sterile water) and then rested for 5 weeks prior to receiving the test compound. […] Based on the aerosol testing only 1.6 mg/dog could be delivered by inhalation during a 15 minute exposure (20 mg/ml solution). In addition, each dog received twice daily an intranasal instillation of 30 mg (2×375 μl of 20 mg/ml in each nostril) given within 30 minutes after the end of the inhalation exposures.
# FIG. 1 summarizes the study design for characterizing the effects of CGP on rhinitis symptoms in ragweed sensitized Beagle dogs. The baseline nasal cavity volume was first measured 3 days (day −3) before each of the vehicle and CGP treatments. The dogs were treated with vehicle or CGP (day 0) twice daily with the target dosage described above. Three days into the vehicle or CGP treatment, nasal challenge with ragweed was performed (day 3). Treatment with vehicle or CGP continued during the assessment of rhinitis endpoints, e.g., total treatment duration=6 days (day 0-5) for each of the vehicle and CGP treatments. There were 5 weeks following the first intranasal RW challenge during the vehicle treatment and the CGP treatment.
# Vehicle (sterile water) was given twice daily by inhalation (15 minutes) followed by intranasal instillation of water (2×250 μl in each nostril). […] The test-article and the compound solution were prepared in the morning of each treatment day. Vehicle and test-article were administered by inhalation and intranasal instillation twice a day. Dosing of vehicle or test compound was achieved by utilizing a face mask connected to a jet nebulizer for inhalation delivery followed by intranasal instillation in both nostrils using an Accuspray device.
# Rhinitis assessments were conducted using one or more of the following tests. • Nasal cavity geometry (AcR) pre/post antigen challenge in both nares • 1. time 0 (just prior to RW instillation) • 2. at 15, 30, 45, 60, 75, 90 min, 24 h and 48 h post RW challenge • Nasal lavage of both nares at baseline and at 24 h (Day 4) and 48 h (Day 5) post RW instillation and only one side at 15, 30, 45 and 60 min post RW challenge (Day 3) • 1. Release of histamine, leukotrienes and prostaglandins in nasal lavage fluid baseline (prior to compound or RW treatment/challenge), 15, 30, 45, 60 min and 24 h post RW instillation • 2. Nasal lavage cells from the baseline (Day-3), 24 h (Day 4) and 48 h (Day 5) hour lavage were used for determination of inflammatory cell differentials • 3. Excess nasal lavage fluid was frozen for analysis of cytokines. • Cardiovascular readouts (heart rate, O2 saturation, body temperature) throughout nasal congestion measurement.
# While under anesthesia a flexible plastic catheter was inserted several centimeters into the dog's nare. The nare was washed with a phosphate buffered saline solution (PBS; 3×5 ml for collection of cells [baseline, 24 and 48 h post RW challenge]; 1×5 ml for collection of fluid for mediators [15, 30, 45, and 60 minutes post RW challenge]).
# Total nasal cells were determined using an automatic cell counter. Cells were spun onto slides by cytocentrifugation and stained with a modified Wright-Giemsa stain. At least four hundred inflammatory cells (or less if applicable) were counted and the percentage of specific cell types determined for each animal (slides in duplicates, 200 cells per slide). The first lavage fluid sample (after centrifugation) was frozen separately for mediator analysis. Mediator analysis for histamine, leukotrienes, and prostaglandins were performed according to the kit manufacturer instructions (Immunotech—Beckman Coulter Company #IM2015, Neogen Corporation #406410, Cayman Chemical Company: PGE2—#514010, PGD2—#512011, respectively). […]
# [3] = tested on: inflammatory cells in nasal lavage; assay: Nasal lavage cell counts and differentials after nasal ragweed challenge; type: in vivo, Beagle dogs
# Experimental: as §2
# as §1, with “treatments. The dogs were treated with vehicle or CGP (day 0) twice daily with the target dosage described above.” for “treatments.”
# Total nasal cells were determined using an automatic cell counter. […] At least four hundred inflammatory cells (or less if applicable) were counted and the percentage of specific cell types determined for each animal (slides in duplicates, 200 cells per slide). […]
# Changes in nasal cavity volume or mediator levels were assessed by two way analysis of variance (ANOVA) with Bonferroni post-test. […]
# [4] = before and after ragweed challenge, vs vehicle, n=5, One Way Anova, Dunnett's posttest
substance,measurement,setting,value
calcium glycerophosphate,attenuation of nasal congestion at individual time points,"[1]; 15 to 90 minutes post ragweed, Bonferroni posttest p<0.05",statistically significant at all time points from 15 to 90 minutes post ragweed
same,AUC of the change in nasal cavity volume between 0 and 90 min,"[1]; vs vehicle control, n=5, Paired t-test p=0.0092",significantly increased
same,histamine levels in nasal lavage fluid,[2]; [4],no statistical significance was reached
same,levels of leukotriene C4/D4/E4 in nasal lavage fluid,[2]; [4],no statistical significance was reached
same,prostaglandin D2 levels in nasal lavage fluid,[2]; [4],no statistical significance was reached
same,prostaglandin E2 levels in nasal lavage fluid,[2]; [4],Levels of PGE2 decreased following ragweed challenge; also recorded: no statistical significance was reached
same,"histamine, leukotriene and prostaglandin D2 and E2 levels in nasal lavage fluid","[2]; compound vs vehicle treatment, statistical significance not reached",partially altered
same,prostaglandin E2 levels normalized to baseline (T0 = 100%),"[2]; vs vehicle, Two Way Anova p<0.009, no significance at individual time points",a greater reduction in PGE2 levels following RW challenge; also recorded: significantly attenuated compared to vehicle treatment
same,AUC of histamine levels between 0 and 60 min,"[2]; vs vehicle, n=5","histamine levels decreased in two of the 5 dogs, no statistical significance was reached"
same,AUC of prostaglandin D2 levels between 0 and 60 min,"[2]; vs vehicle, n=5",prostaglandin D2 levels decreased in three dogs and increased in two dogs and no statistical significance was reached
same,levels of macrophages in nasal lavage,"[3]; following treatment, not detectable following vehicle",negligible levels
same,number of inflammatory cells in the nasal lavage,"[3]; pretreatment vs vehicle, Days 1 and 2 after nasal RW challenge","did tend to reduce the lung inflammatory cells compared to vehicle treatment, although none of the endpoints reached statistical significance"
